From publication PMC3107544 (Biochemistry, 2010)
Read-outs that look alike come from different tables or passages of the source. Marks after values point to notes of the source that are not given here.

Experiments:
5-HT2A receptor [1] = target: T1, 5-HT2A receptor (Rattus norvegicus, UniProt P14842); type: cell-based; settings: DOI 1μM, infected RSK2+/+ cortical neurons
5-HT2A receptor [2] = type: cell-based, rat; settings: uninfected cortical neurons; DOI 1μM
5-HT2A receptor [3] = target: T1, 5-HT2A receptor; test: cell-based; settings: for EC50: pEC50 ± SEM
P2Y purinergic receptor [4] = type: cell-based, RSK2+/+ mouse embryonic fibroblasts
P2Y purinergic receptor [5] = type: cell-based, RSK2+/+ mouse embryonic fibroblasts; remark: listed apart in the source
P2Y purinergic receptor [6] = type: cell-based, RSK2+/+ mouse embryonic fibroblasts; remark: listed apart in the source
P2Y purinergic receptor [7] = type: cell-based, RSK2−/− mouse embryonic fibroblasts
P2Y purinergic receptor [8] = type: cell-based, RSK2−/− mouse embryonic fibroblasts; remark: listed apart in the source
P2Y purinergic receptor [9] = type: cell-based, RSK2−/− mouse embryonic fibroblasts; remark: listed apart in the source
P2Y purinergic receptor [10] = test: FLIPR Tetra P2Y-mediated Ca^2+ responses in MEFs; type: cell-based, mouse; settings: for EC50: read-out: potency (EC50)
5-HT2A receptor [11] = target: 5-HT2A receptor (Mus musculus, UniProt P35363); settings: RSK2+/+ mVSMCs; 100nM
5-HT2A receptor (Mus musculus, UniProt P35363), sequence (P35363 whole entry): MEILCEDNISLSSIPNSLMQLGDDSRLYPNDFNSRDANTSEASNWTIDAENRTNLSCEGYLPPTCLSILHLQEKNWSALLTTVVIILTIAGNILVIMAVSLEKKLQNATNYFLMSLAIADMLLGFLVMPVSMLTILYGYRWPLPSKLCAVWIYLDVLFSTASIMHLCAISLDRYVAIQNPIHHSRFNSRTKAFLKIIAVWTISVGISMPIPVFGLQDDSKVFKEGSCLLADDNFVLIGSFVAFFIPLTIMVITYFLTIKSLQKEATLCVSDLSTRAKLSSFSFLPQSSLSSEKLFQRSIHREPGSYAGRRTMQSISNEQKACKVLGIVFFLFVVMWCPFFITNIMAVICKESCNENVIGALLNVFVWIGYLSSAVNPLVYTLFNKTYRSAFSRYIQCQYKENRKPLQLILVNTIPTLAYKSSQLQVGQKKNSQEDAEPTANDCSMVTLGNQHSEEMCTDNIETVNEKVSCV

[12] = tested on: 5-HT2A-mediated Ca^2+ responses; test: Growth factor attenuation of 5-HT2A-mediated Ca^2+ responses in MEFs; type: cell-based, mouse
RSK2 = test: Immunoprecipitation and immunoblot of RSK2 activation; type: cell-based, mouse; settings: for maximal activation of RSK2 (sum pixel intensity normalized to total RSK2): RSK2+/+ MEFs, 5 min, EGF 100ng/mL or IGF-1 10nM
IGF-1 R = IGF-1 R (Mus musculus, UniProt Q60751); test: Immunoblot of IGF-1 R phosphorylation; type: cell-based; settings: RSK2+/+ MEFs; 10 nM
IGF-1 R, sequence (Q60751 31-737 limits assumed): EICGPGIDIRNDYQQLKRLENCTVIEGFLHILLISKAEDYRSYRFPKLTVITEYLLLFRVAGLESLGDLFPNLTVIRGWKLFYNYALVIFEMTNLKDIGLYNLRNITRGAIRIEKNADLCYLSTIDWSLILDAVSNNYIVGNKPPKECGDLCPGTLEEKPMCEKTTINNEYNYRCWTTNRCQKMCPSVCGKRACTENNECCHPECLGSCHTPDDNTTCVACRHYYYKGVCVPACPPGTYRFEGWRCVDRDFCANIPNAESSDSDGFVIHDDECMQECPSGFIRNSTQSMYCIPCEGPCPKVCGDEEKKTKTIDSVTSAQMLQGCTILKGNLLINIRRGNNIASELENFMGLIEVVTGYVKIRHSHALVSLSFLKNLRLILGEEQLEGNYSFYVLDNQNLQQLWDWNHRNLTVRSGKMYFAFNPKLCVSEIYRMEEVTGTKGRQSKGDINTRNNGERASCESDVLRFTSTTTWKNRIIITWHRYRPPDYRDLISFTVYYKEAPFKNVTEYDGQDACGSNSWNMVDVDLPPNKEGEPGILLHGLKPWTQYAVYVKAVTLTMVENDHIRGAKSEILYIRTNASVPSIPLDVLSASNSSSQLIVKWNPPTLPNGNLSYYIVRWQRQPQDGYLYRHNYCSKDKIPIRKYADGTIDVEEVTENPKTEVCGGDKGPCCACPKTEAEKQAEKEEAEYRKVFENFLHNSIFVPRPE
IGF-1 R, sequence (Q60751 742-1373 limits assumed): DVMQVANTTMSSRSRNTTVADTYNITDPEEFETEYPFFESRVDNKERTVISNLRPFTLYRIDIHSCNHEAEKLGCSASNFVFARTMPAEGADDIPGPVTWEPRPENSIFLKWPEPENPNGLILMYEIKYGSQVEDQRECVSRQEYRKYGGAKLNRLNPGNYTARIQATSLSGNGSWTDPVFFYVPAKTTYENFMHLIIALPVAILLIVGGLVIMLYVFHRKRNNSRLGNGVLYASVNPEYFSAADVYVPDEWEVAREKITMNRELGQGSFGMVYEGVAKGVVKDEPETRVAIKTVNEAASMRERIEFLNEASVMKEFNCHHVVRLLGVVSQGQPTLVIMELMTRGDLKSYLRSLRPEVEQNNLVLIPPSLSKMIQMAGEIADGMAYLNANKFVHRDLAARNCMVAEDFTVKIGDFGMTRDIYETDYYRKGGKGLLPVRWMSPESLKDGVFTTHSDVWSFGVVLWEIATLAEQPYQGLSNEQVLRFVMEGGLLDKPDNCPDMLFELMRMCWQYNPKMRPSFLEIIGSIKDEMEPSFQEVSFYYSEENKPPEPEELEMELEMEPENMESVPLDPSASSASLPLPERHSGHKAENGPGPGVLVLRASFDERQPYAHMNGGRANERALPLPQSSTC

[13] = tested on: 5-HT2A-mediated Ca^2+ responses; test: Growth factor attenuation of 5-HT2A-mediated Ca^2+ responses in mVSMCs; type: cell-based, mouse; settings: saturating 5-HT 10μM, 60 min treatment
[14] = RSK2+/+ MEFs, EGF 100ng/mL 0 min (untreated)
[15] = RSK2+/+ MEFs, EGF 100ng/mL 60 min
[16] = RSK2−/− MEFs, EGF 100ng/mL 0 min (untreated)
[17] = RSK2−/− MEFs, EGF 100ng/mL 60 min

In the case of `COc1cc(CC(C)N)c(OC)cc1I.Cl` (racemic) [DOI, (±)-2,5-dimethoxy-4-iodoamphetamine hydrochloride], the Area under curve (5-HT2A receptor [1]; EGF 100ng/mL 60 min) is reported as 20.9 +/− 1.2 ^b, the Area under curve (5-HT2A receptor [1]; NRG-1 100ng/mL) is reported as 28.6 +/− 1.7 ^b and the Area under curve (5-HT2A receptor [1]; RTK ligand None) is reported as 33.7 +/− 1.3. The “Ca^2+ response in uninfected neurons” value (5-HT2A receptor [2]) was “unresponsive”.

`COc1ccc2[nH]cc(CCN(C)C)c2c1` [5-methoxy DMT, 5-methoxy-N,N-dimethyltryptamine] showed an EC50 (5-HT2A receptor [3]; [14]) of 25.7 nM, an EC50 (5-HT2A receptor [3]; [15]) of 67.6 nM and an EC50 (5-HT2A receptor [3]; [16]) of 89.1 nM. For the same molecule, the EC50 (5-HT2A receptor [3]; [17]) was 89.1 nM, the Emax (5-HT2A receptor [3]; read-out: Emax± SEM, %, RSK2+/+ MEFs, EGF 100ng/mL 0 min (untreated)) was 86.7% and the Emax (5-HT2A receptor [3]; read-out: Emax± SEM, %, RSK2+/+ MEFs, EGF 100ng/mL 60 min) was 79.6%. It also gave an Emax (5-HT2A receptor [3]; read-out: Emax± SEM, %, RSK2−/− MEFs, EGF 100ng/mL 0 min (untreated)) of 80.4% and an Emax (5-HT2A receptor [3]; read-out: Emax± SEM, %, RSK2−/− MEFs, EGF 100ng/mL 60 min) of 79.1%.

For `Nc1ncnc2c1ncn2[C@@H]1O[C@H](COP(=O)(O)OP(=O)(O)OP(=O)(O)O)[C@@H](O)[C@H]1O` [ATP, adenosine 5'-triphosphate], the “RSK2+/+ MEFs, 0 min, pEC50 ± SEM” value (P2Y purinergic receptor [4]) was 5.16 +/− 0.05, the “RSK2+/+ MEFs, 30 min, pEC50 ± SEM” value (P2Y purinergic receptor [5]) was 4.95 +/− 0.06 ^d and the “RSK2+/+ MEFs, 60 min, pEC50 ± SEM” value (P2Y purinergic receptor [6]) was 4.88 +/− 0.09 ^d. The “RSK2−/− MEFs, 0 min, pEC50 ± SEM” value (P2Y purinergic receptor [7]) was 5.37 +/− 0.09, the “RSK2−/− MEFs, 30 min, pEC50 ± SEM” value (P2Y purinergic receptor [8]) was 5.34 +/− 0.09 and the “RSK2−/− MEFs, 60 min, pEC50 ± SEM” value (P2Y purinergic receptor [9]) was 5.30 +/− 0.09.

In the case of `Nc1ncnc2c1ncn2[C@@H]1O[C@H](COP(=O)(O)OP(=O)(O)OP(=O)(O)O)[C@@H](O)[C@H]1O` [ATP], the “Emax± SEM, %” value (P2Y purinergic receptor [10]; [14]) is reported as 99.7 +/− 2.0%, the “Emax± SEM, %” value (P2Y purinergic receptor [10]; RSK2+/+ MEFs, EGF 100ng/mL 30 min) is reported as 88.4 +/− 2.5 ^d % and the “Emax± SEM, %” value (P2Y purinergic receptor [10]; [15]) is reported as 82.5 +/− 3.2 ^d %. The “Emax± SEM, %” value (P2Y purinergic receptor [10]; [16]) was 98.6 +/− 3.3%, the “Emax± SEM, %” value (P2Y purinergic receptor [10]; RSK2−/− MEFs, EGF 100ng/mL 30 min) was 93.4 +/− 3.2% and the “Emax± SEM, %” value (P2Y purinergic receptor [10]; [17]) was 100 +/− 3.5%. For the same molecule, the EC50 (P2Y purinergic receptor [10]; RSK2+/+ MEFs, 60 min EGF treatment) was 13000 nM and the EC50 (P2Y purinergic receptor [10]; RSK2+/+ MEFs, untreated) was 7000 nM.

For `COc1cccc([C@H](O)C2CCN(CCc3ccc(F)cc3)CC2)c1OC` [MDL100907], the “block of 5-HT-elicited Ca^2+ responses” value (5-HT2A receptor [11]) was “blocked”.

“EGF: human epidermal growth factor, canonical EGFR agonist” was tested, and the “IC50 for attenuation of 5-HT2A-mediated Ca^2+ responses” value ([12]; RSK2+/+ MEFs) was 1.3 ng/mL, the “peak Ca^2+ release” value ([12]; RSK2+/+ MEFs, 10nM 5-HT, 100ng/mL EGF 1hr, parallel control of IGF-1 experiments) was 80.7 +/− 2.3% and the “maximal activation of RSK2 (sum pixel intensity normalized to total RSK2)” value (RSK2) was 1.25 × 10^6 +/− 0.25 × 10^6.

For “IGF-1: insulin-like growth factor 1, activates the IGF-1 R”, the “maximal activation of RSK2 (sum pixel intensity normalized to total RSK2)” value (RSK2) was 0.546 × 10^6 +/− 0.107 × 10^6 and the “activation of IGF-1 R (Tyr(P)1158/1162/1163)” value (IGF-1 R) was “activated”.

For “TGF-α: transforming growth factor-alpha, selective and potent EGFR agonist”, the “IC50 for attenuation of 5-HT2A-mediated Ca^2+ responses” value ([12]; RSK2+/+ MEFs) was 4.1 ng/mL.

In the case of “insulin: insulin, tested for attenuation of 5-HT2A receptor signaling in MEFs”, the “effect on 5-HT2A receptor signaling” value ([12]; MEFs, data not shown) is reported as “no effect” and the “activation of RSK2” value (RSK2; MEFs, data not shown) is reported as “modest activation”.

B1: PDGF-BB: human platelet-derived growth factor BB, PDGFR ligand (protein, UniProt P01127 82-190, looked up)
Platelet-derived growth …: SLGSLTIAEPAMIAECKTRTEVFEISRRLIDRTNANFLVWPPCVEVQRCSGCCNNRNVQCRPTQVQLRPVQVRKIEIVRKKPIFKKATVTLEDHLACKCETVAAARPVT
With B1 the “peak Ca^2+ release” value ([13]; RSK2+/+ cells) was 67.0 +/− 8.5% and the “peak Ca^2+ release” value ([13]; RSK2−/− cells) was 77.9 +/− 7.6%.
